Measurements as given in patent publication US9758529B2, “Fused dihydro-4H-pyrazolo[5,1-C][1,4]oxazinyl compounds and analogs for treating CNS disorders” (Sunovion Pharmaceuticals Inc., priority 2015, dated 2017).
Where a name gives a salt, the structure may show the parent alone.

Tested on: mice
Experiment: Neuropharmacological Assay (SmartCube)
Type: in vivo
Details: i.p. 15 min before behavioral test; 3 doses, most efficacious dose(s) presented
Text: Neurosci. […] As reported in Roberds, because psychiatric diseases generally result from disorders of cell-cell communication or circuitry, intact systems are useful in detecting improvement in disease-relevant endpoints. These endpoints are typically behavioral in nature, often requiring human observation and interpretation. To facilitate testing of multiple compounds for behavioral effects relevant to psychiatric disease, PsychoGenics, Inc. (Tarrytown, N.Y., “PGI”) developed SmartCube™, an automated system in which behaviors of compound-treated mice are captured by digital video and analyzed with computer algorithms. […] PGI Analytical Systems uses data from SmartCube™ to compare the behavioral signature of a test compound to a database of behavioral signatures obtained using a large set of diverse reference compounds. (The composition of the database as well as validation of the method is further described in Roberds). In this way, the neuropharmacological effects of a test compound can be predicted by similarity to major classes of compounds, such as antipsychotics, anxiolytics and antidepressants.
The SmartCube™ system produces an activity signature indicating the probability that the activity of the test compound at the administered dose matches a given class of neuropharmacological agents. (See, e.g., Roberds, FIGS. 2 and 3). The test compound is simultaneously compared against multiple classes of agents; thus, a separate probability is generated for each behavioral effect measured (e.g., anxiolytic activity, analgesic activity, etc.). In Table 2 and 2B, these probabilities are reported for each behavioral effect measured as follows:
where LOQ is the limit of quantification.
Provided compounds were dissolved in a mixture of Pharmasolve™ (N-methyl-2-pyrrolidone), polyethylene glycol and propylene glycol, and were injected i.p. 15 min. before the behavioral test. For each compound, injections were administered at 3 different doses. For each behavioral effect measured, results for the most efficacious dose(s) are presented.

SMILES	AD: ADHD (probability of class match)	AG: analgesic (probability of class match)	AX: anxiolytic (probability of class match)	CE: cognitive enhancer (probability of class match)	DP: anti-depressant (probability of class match)	HA: hallucinogen (probability of class match)	MS: mood stabilizer (probability of class match)	PS: anti-psychotic (probability of class match)	SD: sedative hypnotic (probability of class match)	UN: uncharacterized CNS activity (probability of class match)	XG: anxiogenic (probability of class match)
c1ccc2c3n(nc2c1)CCOC3[C@@H]1CCCN1 (stereo partly drawn) [Compound 13, 1-((S)-pyrrolidin-2-yl)-3,4-dihydro-1H-[1,4]oxazino[4,3-b]indazole hydrochloride]	+ (LOQ≦ + <5%)	+++ (25%≦ +++ <50%)	++ (5%≦ ++ <25%)	++ (5%≦ ++ <25%)	++ (5%≦ ++ <25%)	+ (LOQ≦ + <5%)	++ (5%≦ ++ <25%)	+ (LOQ≦ + <5%)	+ (LOQ≦ + <5%)	+ (LOQ≦ + <5%)	+ (LOQ≦ + <5%)
CN1CCC[C@H]1C1OCCn2nc3ccccc3c21 (stereo partly drawn) [Compound 14, 1-((S)-1-methylpyrrolidin-2-yl)-3,4-dihydro-1H-[1,4]oxazino[4,3-b]indazole hydrochloride]	+ (LOQ≦ + <5%)	+ (LOQ≦ + <5%)	+++ (25%≦ +++ <50%)	++ (5%≦ ++ <25%)	++ (5%≦ ++ <25%)	+ (LOQ≦ + <5%)	+ (LOQ≦ + <5%)	++ (5%≦ ++ <25%)	+ (LOQ≦ + <5%)	+ (LOQ≦ + <5%)	+ (LOQ≦ + <5%)
NCC1OCCn2nc3ccccc3c21 (stereo not shown) [Compound 15, (3,4-dihydro-1H-[1,4]oxazino[4,3-b]indazol-1-yl)methanamine]	++++ (50%≦ ++++)	++ (5%≦ ++ <25%)	+ (LOQ≦ + <5%)	+ (LOQ≦ + <5%)	++ (5%≦ ++ <25%)	+ (LOQ≦ + <5%)	+ (LOQ≦ + <5%)	+ (LOQ≦ + <5%)	+ (LOQ≦ + <5%)	+ (LOQ≦ + <5%)	+ (LOQ≦ + <5%)
c1ccc2c3n(nc2c1)CCOC3CNC1CCC1 (stereo not shown) [Compound 16, N-((3,4-dihydro-1H-[1,4]oxazino[4,3-b]indazol-1-yl)methyl) cyclobutanamine]	+ (LOQ≦ + <5%)	+ (LOQ≦ + <5%)	+ (LOQ≦ + <5%)	+ (LOQ≦ + <5%)	+ (LOQ≦ + <5%)	+ (LOQ≦ + <5%)	+ (LOQ≦ + <5%)	+ (LOQ≦ + <5%)	+ (LOQ≦ + <5%)	+ (LOQ≦ + <5%)	+ (LOQ≦ + <5%)
CC(C)NCC1OCCn2nc3ccccc3c21 (stereo not shown) [Compound 17, N-((3,4-dihydro-1H-[1,4]oxazino[4,3-b]indazol-1-yl)methyl)propan-2-amine]	+ (LOQ≦ + <5%)	+ (LOQ≦ + <5%)	++ (5%≦ ++ <25%)	+ (LOQ≦ + <5%)	++ (5%≦ ++ <25%)	+ (LOQ≦ + <5%)	+ (LOQ≦ + <5%)	+ (LOQ≦ + <5%)	+ (LOQ≦ + <5%)	++ (5%≦ ++ <25%)	+ (LOQ≦ + <5%)
CCNCC1OCCn2nc3ccccc3c21.Cl (stereo not shown) [Compound 18, N-((3,4-dihydro-1H-[1,4]oxazino[4,3-b]indazol-1-yl)methyl) ethanamine hydrogen chloride salt]	+ (LOQ≦ + <5%)	++ (5%≦ ++ <25%)	++ (5%≦ ++ <25%)	++ (5%≦ ++ <25%)	+ (LOQ≦ + <5%)	+ (LOQ≦ + <5%)	+ (LOQ≦ + <5%)	++ (5%≦ ++ <25%)	+ (LOQ≦ + <5%)	+ (LOQ≦ + <5%)	+ (LOQ≦ + <5%)
c1ccc2c3n(nc2c1)CCOC3CN1CCCC1 (stereo not shown) [Compound 19, 1-(pyrrolidin-1-ylmethyl)-3,4-dihydro-1H-[1,4]oxazino[4,3-b]indazole hydrogen chloride salt]	+ (LOQ≦ + <5%)	++ (5%≦ ++ <25%)	++ (5%≦ ++ <25%)	++ (5%≦ ++ <25%)	+++ (25%≦ +++ <50%)	+ (LOQ≦ + <5%)	+ (LOQ≦ + <5%)	+ (LOQ≦ + <5%)	+ (LOQ≦ + <5%)	+ (LOQ≦ + <5%)	+ (LOQ≦ + <5%)
c1ccc2c3n(nc2c1)CCOC3CN1CCOCC1 (stereo not shown) [Compound 20, 1-(morpholinomethyl)-3,4-dihydro-1H-[1,4]oxazino[4,3-b]indazole hydrogen chloride salt]	+ (LOQ≦ + <5%)	++ (5%≦ ++ <25%)	+++ (25%≦ +++ <50%)	++ (5%≦ ++ <25%)	++ (5%≦ ++ <25%)	+ (LOQ≦ + <5%)	+ (LOQ≦ + <5%)	++ (5%≦ ++ <25%)	+ (LOQ≦ + <5%)	+ (LOQ≦ + <5%)	+ (LOQ≦ + <5%)
c1ccc2c3n(nc2c1)CCOC3CNC1CC1 (stereo not shown) [Compound 21, N-((3,4-dihydro-1H-[1,4]oxazino[4,3-b]indazol-1-yl)methyl)cyclopropan amine hydrogen chloride salt]	+ (LOQ≦ + <5%)	++ (5%≦ ++ <25%)	++ (5%≦ ++ <25%)	+ (LOQ≦ + <5%)	++ (5%≦ ++ <25%)	+ (LOQ≦ + <5%)	+ (LOQ≦ + <5%)	++ (5%≦ ++ <25%)	+ (LOQ≦ + <5%)	+ (LOQ≦ + <5%)	+ (LOQ≦ + <5%)
CN(CC1OCCn2nc3ccccc3c21)C1CC1 (stereo not shown) [Compound 22, N-((3,4-dihydro-1H-[1,4]oxazino[4,3-b]indazol-1-yl)methyl)-N-methylcyclopropanamine hydrogen chloride salt]	++ (5%≦ ++ <25%)	+ (LOQ≦ + <5%)	++ (5%≦ ++ <25%)	+ (LOQ≦ + <5%)	++++ (50%≦ ++++)	++ (5%≦ ++ <25%)	+ (LOQ≦ + <5%)	+ (LOQ≦ + <5%)	+ (LOQ≦ + <5%)	++ (5%≦ ++ <25%)	+ (LOQ≦ + <5%)
CN1CCC2(C1)OCCn1nc3ccccc3c12.Cl (stereo not shown) [Compound 23, 1′-methyl-3,4-dihydrospiro[[1,4]oxazino[4,3-b]indazole-1,3′-pyrrolidin]-1′-ium chloride]	+ (LOQ≦ + <5%)	++ (5%≦ ++ <25%)	++++ (50%≦ ++++)	++ (5%≦ ++ <25%)	++ (5%≦ ++ <25%)	+ (LOQ≦ + <5%)	+ (LOQ≦ + <5%)	+ (LOQ≦ + <5%)	+ (LOQ≦ + <5%)	+ (LOQ≦ + <5%)	+ (LOQ≦ + <5%)
